Laboratory results published in PubChem BioAssay (NCI).
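Method: 48-hour compound exposure of cells in 96-well plates, five concentrations, linear interpolation of endpoints. TGI is the concentration that stops growth completely.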

Legend:
Assay in all cases: NCI tumour cell line growth inhibition, 48 h
MDA-N = tested on: MDA-N
HS 578T breast = tested on: HS 578T breast
PC-3 prostate = tested on: PC-3 prostate
786-0 renal = tested on: 786-0 renal
NCI-H23 lung = tested on: NCI-H23 lung
UACC-62 melanoma = tested on: UACC-62 melanoma
CCRF-CEM leukemia = tested on: CCRF-CEM leukemia
IGROV1 ovarian = tested on: IGROV1 ovarian
LOX IMVI melanoma = tested on: LOX IMVI melanoma
A549 NSCLC = tested on: A549 NSCLC
HOP-92 NSCLC = tested on: HOP-92 NSCLC
MALME-3M melanoma = tested on: MALME-3M melanoma
UO-31 renal = tested on: UO-31 renal
CAKI-1 renal = tested on: CAKI-1 renal
SF-268 CNS = tested on: SF-268 CNS
RPMI-8226 leukemia = tested on: RPMI-8226 leukemia
MDA-MB-435 = tested on: MDA-MB-435
SNB-75 CNS = tested on: SNB-75 CNS
KM12 colon = tested on: KM12 colon
SK-MEL-5 melanoma = tested on: SK-MEL-5 melanoma
SR leukemia = tested on: SR leukemia
U251 CNS = tested on: U251 CNS
K-562 leukemia = tested on: K-562 leukemia
RXF 393 renal = tested on: RXF 393 renal
EKVX NSCLC = tested on: EKVX NSCLC
SF-295 CNS = tested on: SF-295 CNS
DU-145 prostate = tested on: DU-145 prostate
SW-620 colon = tested on: SW-620 colon
T-47D breast = tested on: T-47D breast
SN12C renal = tested on: SN12C renal
HL-60(TB) leukemia = tested on: HL-60(TB) leukemia
TK-10 renal = tested on: TK-10 renal
OVCAR-8 ovarian = tested on: OVCAR-8 ovarian
SK-MEL-2 melanoma = tested on: SK-MEL-2 melanoma
HCC-2998 colon = tested on: HCC-2998 colon
MDA-MB-231 breast = tested on: MDA-MB-231 breast
ACHN renal = tested on: ACHN renal
HCT-15 colon = tested on: HCT-15 colon
OVCAR-3 ovarian = tested on: OVCAR-3 ovarian
NCI-H522 lung = tested on: NCI-H522 lung
MOLT-4 leukemia = tested on: MOLT-4 leukemia
OVCAR-5 ovarian = tested on: OVCAR-5 ovarian
SNB-19 CNS = tested on: SNB-19 CNS
COLO 205 colon = tested on: COLO 205 colon
A498 renal = tested on: A498 renal
HT29 colon = tested on: HT29 colon
M14 melanoma = tested on: M14 melanoma
NCI/ADR-RES ovarian = tested on: NCI/ADR-RES ovarian
MCF7 breast = tested on: MCF7 breast
SK-MEL-28 melanoma = tested on: SK-MEL-28 melanoma
HOP-62 NSCLC = tested on: HOP-62 NSCLC
SF-539 CNS = tested on: SF-539 CNS
HCT-116 colon = tested on: HCT-116 colon
BT-549 breast = tested on: BT-549 breast
UACC-257 melanoma = tested on: UACC-257 melanoma
SK-OV-3 ovarian = tested on: SK-OV-3 ovarian
NCI-H226 lung = tested on: NCI-H226 lung
NCI-H460 lung = tested on: NCI-H460 lung
OVCAR-4 ovarian = tested on: OVCAR-4 ovarian

## S=C(S)N1CCN(c2cccc(Cl)c2)CC1
MDA-N
  TGI: > 100 µM
HS 578T breast
  TGI: > 100 µM
PC-3 prostate
  TGI: > 100 µM
786-0 renal
  TGI: > 100 µM
NCI-H23 lung
  TGI: > 100 µM
UACC-62 melanoma
  TGI: > 100 µM
CCRF-CEM leukemia
  TGI: > 100 µM
IGROV1 ovarian
  TGI: > 100 µM
LOX IMVI melanoma
  TGI: > 100 µM
A549 NSCLC
  TGI: > 100 µM
HOP-92 NSCLC
  TGI: > 100 µM
MALME-3M melanoma
  TGI: > 100 µM
UO-31 renal
  TGI: > 100 µM
CAKI-1 renal
  TGI: > 100 µM
SF-268 CNS
  TGI: > 100 µM
RPMI-8226 leukemia
  TGI: > 100 µM
MDA-MB-435
  TGI: > 100 µM
SNB-75 CNS
  TGI: > 100 µM
KM12 colon
  TGI: > 100 µM
SK-MEL-5 melanoma
  TGI: > 100 µM
SR leukemia
  TGI: > 100 µM
U251 CNS
  TGI: > 100 µM
K-562 leukemia
  TGI: > 100 µM
RXF 393 renal
  TGI: > 100 µM
EKVX NSCLC
  TGI: > 100 µM
SF-295 CNS
  TGI: > 100 µM
DU-145 prostate
  TGI: > 100 µM
SW-620 colon
  TGI: > 100 µM
T-47D breast
  TGI: > 100 µM
SN12C renal
  TGI: > 100 µM
HL-60(TB) leukemia
  TGI: > 100 µM
TK-10 renal
  TGI: > 100 µM
OVCAR-8 ovarian
  TGI: > 100 µM
SK-MEL-2 melanoma
  TGI: > 100 µM
HCC-2998 colon
  TGI: > 100 µM
MDA-MB-231 breast
  TGI: > 100 µM
ACHN renal
  TGI: > 100 µM
HCT-15 colon
  TGI: > 100 µM
OVCAR-3 ovarian
  TGI: > 100 µM
NCI-H522 lung
  TGI: > 100 µM
MOLT-4 leukemia
  TGI: > 100 µM
OVCAR-5 ovarian
  TGI: > 100 µM
SNB-19 CNS
  TGI: > 100 µM
COLO 205 colon
  TGI: > 100 µM
A498 renal
  TGI: > 100 µM
HT29 colon
  TGI: > 100 µM
M14 melanoma
  TGI: > 100 µM
NCI/ADR-RES ovarian
  TGI: > 100 µM
MCF7 breast
  TGI: > 100 µM
SK-MEL-28 melanoma
  TGI: > 100 µM
HOP-62 NSCLC
  TGI: > 100 µM
SF-539 CNS
  TGI: > 100 µM
HCT-116 colon
  TGI: > 100 µM
BT-549 breast
  TGI: > 100 µM
UACC-257 melanoma
  TGI: > 100 µM

## O=[N+]([O-])c1ccccc1S(=O)(=O)c1cc(O)cc2c1NCCC2
MDA-N
  TGI: 38.8 µM
HS 578T breast
  TGI: > 86.7 µM
PC-3 prostate
  TGI: 28.7 µM
SK-OV-3 ovarian
  TGI: > 31.6 µM
786-0 renal
  TGI: 25.9 µM
NCI-H23 lung
  TGI: 49 µM
UACC-62 melanoma
  TGI: 28.9 µM
CCRF-CEM leukemia
  TGI: 5.6 µM
IGROV1 ovarian
  TGI: 30.8 µM
LOX IMVI melanoma
  TGI: 38.4 µM
A549 NSCLC
  TGI: > 85.9 µM
HOP-92 NSCLC
  TGI: 16.8 µM
MALME-3M melanoma
  TGI: 37.9 µM
UO-31 renal
  TGI: 29.8 µM
CAKI-1 renal
  TGI: 63.3 µM
SF-268 CNS
  TGI: 42.6 µM
MDA-MB-435
  TGI: 41.4 µM
SNB-75 CNS
  TGI: 33.5 µM
KM12 colon
  TGI: 34.3 µM
SK-MEL-5 melanoma
  TGI: 27.1 µM
SR leukemia
  TGI: 5.37 µM
U251 CNS
  TGI: 40.1 µM
K-562 leukemia
  TGI: 7.54 µM
RXF 393 renal
  TGI: 31.7 µM
EKVX NSCLC
  TGI: 30.7 µM
SF-295 CNS
  TGI: > 59.1 µM
DU-145 prostate
  TGI: 35.7 µM
SW-620 colon
  TGI: 32.6 µM
T-47D breast
  TGI: 24.1 µM
NCI-H226 lung
  TGI: 62.8 µM
SN12C renal
  TGI: 41.5 µM
HL-60(TB) leukemia
  TGI: > 23 µM
NCI-H460 lung
  TGI: 53 µM
TK-10 renal
  TGI: 36.7 µM
OVCAR-8 ovarian
  TGI: 41.6 µM
SK-MEL-2 melanoma
  TGI: 51.7 µM
HCC-2998 colon
  TGI: 51.1 µM
MDA-MB-231 breast
  TGI: 32.4 µM
ACHN renal
  TGI: 27.4 µM
HCT-15 colon
  TGI: 44.4 µM
OVCAR-3 ovarian
  TGI: 18.1 µM
NCI-H522 lung
  TGI: 24.5 µM
MOLT-4 leukemia
  TGI: 13.6 µM
OVCAR-5 ovarian
  TGI: 40 µM
SNB-19 CNS
  TGI: 65.6 µM
COLO 205 colon
  TGI: 34.3 µM
OVCAR-4 ovarian
  TGI: 29.3 µM
A498 renal
  TGI: 18.4 µM
HT29 colon
  TGI: 40.9 µM
M14 melanoma
  TGI: 30.8 µM
NCI/ADR-RES ovarian
  TGI: > 79.3 µM
MCF7 breast
  TGI: 29.8 µM
SK-MEL-28 melanoma
  TGI: 33.9 µM
HOP-62 NSCLC
  TGI: 40.3 µM
SF-539 CNS
  TGI: 34.8 µM
HCT-116 colon
  TGI: 20.9 µM
BT-549 breast
  TGI: 26.3 µM
UACC-257 melanoma
  TGI: 26.8 µM
